What is called inhibition is how much of the control response was suppressed.

The subject of this assay is Gaeumannomyces graminis var. tritici (Ggt). Description: In vitro Assay: mycelial growth of Ggt on minimal media agar plates containing test compound. The class given is cell-based. The following applies: dark, 19-20° C., 4 to 5 days, diameter of mycelial growth; for inhibition at 0.1 ppm / inhibition at 1 ppm / inhibition at 10 ppm: Gaeumannomyces graminis; for inhibition at 0.1 ppm: read-out: In vitro (ppm) 0.1, Percent Inhibition; for inhibition at 1 ppm: read-out: In vitro (ppm) 1, Percent Inhibition; for inhibition at 10 ppm: read-out: In vitro (ppm) 10, Percent Inhibition. Here is the method:
The test compounds (0.25 mL of an appropriate stock solution in acetone) are incorporated into 25 mL minimal media agar [(prepared by autoclaving a solution of 17.5 g Czapek Dox broth (Difco), 7.5 g purified agar or Bacto-agar (Difco), and 500 mL distilled/deionized water, and then adding 50 μL of 1 mg/mL thiamine hydrochloride and 50 μL of 1 mg/mL biotin in 5% ethanol] and plates are prepared.
Each plate is inoculated by placing in a triangular shape three 4-mm plugs of Gaeumannomyces graminis var. tritici (Ggt) grown on the minimal media agar described above. The plates are incubated in the dark at 19-20° C. for 4 to 5 days. The growth of the fungus is measured as the diameter of the mycelial growth. The result is expressed as Percent Inhibition, calculated as [1-[(mm growth on treated plate −4)/(mm growth on control plate −4)]]×100.

Consider `CCNC(=O)c1c([Si](C)(C)C)ccc(C#N)c1Cl` [Example 229, 2-Chloro-3-cyano-N-ethyl-6-(trimethylsilyl)benzamide], for which the inhibition at 0.1 ppm (0.1 ppm in minimal media agar) is under 0%. For the setting “1 ppm in minimal media agar”, the inhibition at 1 ppm worked out at 28%. Moreover, the inhibition at 10 ppm (10 ppm in minimal media agar) amounted to 88%.

With `CCNC(=O)c1ccccc1OC(C)(C)C` [Example 247, N-Ethyl-2-(1,1-dimethylethoxy)benzamide], under “0.1 ppm in minimal media agar”, the inhibition at 0.1 ppm is under 0%. Besides, the inhibition at 1 ppm (1 ppm in minimal media agar) came to 16%. Besides, the inhibition at 10 ppm (10 ppm in minimal media agar) is 59%.

As for `CCN(CC)C(=O)c1c([Si](C)(C)C)ccc(F)c1Cl` [Example 88, N,N-Diethyl-2-chloro-3-fluoro-6-(trimethylsilyl)benzamide], the inhibition at 0.1 ppm (0.1 ppm in minimal media agar) is under 0%. Besides, for the setting “1 ppm in minimal media agar”, the inhibition at 1 ppm is under 0%. Under “10 ppm in minimal media agar”, the inhibition at 10 ppm was 73%.

With `CC(C)CSC(=O)c1c(Cl)cccc1[Si](C)(C)C` [Example 81, 2-Chloro-6-(trimethylsilyl)-benzenecarbothioic acid, S-(2-methylpropyl) ester], where the note is “0.1 ppm in minimal media agar”, the inhibition at 0.1 ppm was under 0%. Further, where the note is “1 ppm in minimal media agar”, the inhibition at 1 ppm is under 0%. Where the note is “10 ppm in minimal media agar”, the inhibition at 10 ppm is 46%.

For `CCNC(=O)Nc1c(Cl)cccc1[Si](C)(C)C` [Example 110, N-[2-Chloro-6-(trimethylsilyl)phenyl]-N′-ethylurea], where the note is “0.1 ppm in minimal media agar”, the inhibition at 0.1 ppm was determined as 7%. The inhibition at 1 ppm (1 ppm in minimal media agar) was found to be 17%. In addition, the inhibition at 10 ppm (10 ppm in minimal media agar) is 45%.

Consider `CCN(CSC)C(=O)c1c(Cl)cccc1[Si](C)(C)C` [Example 279, 2-Chloro-N-ethyl-N-[(methylthio)methyl]-6-(trimethylsilyl)benzamide], for which the inhibition at 0.1 ppm (0.1 ppm in minimal media agar) was under 0%. Besides, the inhibition at 1 ppm (1 ppm in minimal media agar) is under 0%. In addition, where the note is “10 ppm in minimal media agar”, the inhibition at 10 ppm came out at 47%.

With “2-Chloro-N-ethyl-6-(9-phenylethenyl)benzamide [Example 116]”, the “In vitro (ppm) 0.1, Percent Inhibition” value (0.1 ppm in minimal media agar) is recorded as “N (If the calculation resulted in “0” or less, as compared to the untreated control, a “N” is shown to indicate no control.)”. For the same molecule, for the setting “1 ppm in minimal media agar”, the “In vitro (ppm) 1, Percent Inhibition” value is “N (If the calculation resulted in “0” or less, as compared to the untreated control, a “N” is shown to indicate no control.)”. Also, for the setting “10 ppm in minimal media agar”, the “In vitro (ppm) 10, Percent Inhibition” value is 33%.

On to `CC1CCCC(C)N1C(=O)c1c(Cl)cccc1[Si](C)(C)C` (stereo not drawn) [Example 131, N-[2-Chloro-6-(trimethylsilyl)benzoyl]-2,6-dimethylpiperidine], for which the inhibition at 0.1 ppm (0.1 ppm in minimal media agar) is under 0%. Further, the inhibition at 1 ppm (1 ppm in minimal media agar) worked out at 6%. The inhibition at 10 ppm (10 ppm in minimal media agar) was found to be 3%.

Consider `C[Si](C)(C)c1cccc(Cl)c1C(=O)NCc1ccncc1` [Example 145, 2-Chloro-N-(4-pyridinylmethyl)-6-(trimethylsilyl)benzamide], for which the inhibition at 0.1 ppm (0.1 ppm in minimal media agar) was under 0%. Besides, the inhibition at 1 ppm (1 ppm in minimal media agar) was under 0%. The inhibition at 10 ppm (10 ppm in minimal media agar) came to 27%.

On to `C[Si](C)(C)c1cc(Cl)sc1C(=O)NCCCl` [Example 264, 5-Chloro-N-(2-chloroethyl)-3-(trimethylsilyl)-2-thiophenecarboxamide], for which the inhibition at 0.1 ppm (0.1 ppm in minimal media agar) was 2%. Also, the inhibition at 1 ppm (1 ppm in minimal media agar) stood at 88%. For the same molecule, the inhibition at 10 ppm (10 ppm in minimal media agar) turned out to be 100%.

In the case of `CCNC(=O)c1nc(Cl)sc1[Si](C)(C)C` [Example 282, 2-Chloro-N-ethyl-5-(trimethylsilyl)-4-thiazolecarboxamide], the inhibition at 0.1 ppm (0.1 ppm in minimal media agar) came out at 3%. In addition, the inhibition at 1 ppm (1 ppm in minimal media agar) was 15%. In addition, the inhibition at 10 ppm (10 ppm in minimal media agar) came to 78%.

On to `C=CCNC(=O)c1sc(Cl)cc1[Si](C)(C)C` [Example 262, 5-Chloro-N-(2-propenyl)-3-(trimethylsilyl)-2-thiophenecarboxamide], for which the inhibition at 0.1 ppm (0.1 ppm in minimal media agar) worked out at 13%. For the same molecule, where the note is “1 ppm in minimal media agar”, the inhibition at 1 ppm worked out at 70%. Moreover, for the setting “10 ppm in minimal media agar”, the inhibition at 10 ppm turned out to be 100%.

With `C=Cc1ccc([Si](C)(C)C)c(C(=O)NCC)c1Cl` [Example 277, 2-Chloro-3-ethenyl-N-ethyl-6-(trimethylsilyl)benzamide], the inhibition at 0.1 ppm (0.1 ppm in minimal media agar) came to 69%. The inhibition at 1 ppm (1 ppm in minimal media agar) stood at 81%. Besides, the inhibition at 10 ppm (10 ppm in minimal media agar) is 94%.
